Key:
Assay type in all cases: cell-based
Settings in all cases: 24 hours of compound treatment, 50 nM and 500 nM tested (concentration behind the class not stated)
GSPT1 = target: T1, GSPT1 (Homo sapiens, UniProt P15170+Q96SW2); test: Western-blot assay of substrate protein degradation in hPBMCs, GSPT1
T1 construct: endogenous in cells; host or cells: hPBMCs (Milecell Biotechnologies)

IKZF2 = target: T2, IKZF2 (Homo sapiens, UniProt Q96SW2+Q9UKS7); test: Western-blot assay of substrate protein degradation in hPBMCs, IKZF2
T2 construct: endogenous in cells; host or cells: hPBMCs (Milecell Biotechnologies)

IKZF3 = target: T3, IKZF3 (Homo sapiens, UniProt Q96SW2+Q9UKT9); test: Western-blot assay of substrate protein degradation in hPBMCs, IKZF3
T3 construct: endogenous in cells; host or cells: hPBMCs (Milecell Biotechnologies)
T3 sequence (Q9UKT9 whole entry): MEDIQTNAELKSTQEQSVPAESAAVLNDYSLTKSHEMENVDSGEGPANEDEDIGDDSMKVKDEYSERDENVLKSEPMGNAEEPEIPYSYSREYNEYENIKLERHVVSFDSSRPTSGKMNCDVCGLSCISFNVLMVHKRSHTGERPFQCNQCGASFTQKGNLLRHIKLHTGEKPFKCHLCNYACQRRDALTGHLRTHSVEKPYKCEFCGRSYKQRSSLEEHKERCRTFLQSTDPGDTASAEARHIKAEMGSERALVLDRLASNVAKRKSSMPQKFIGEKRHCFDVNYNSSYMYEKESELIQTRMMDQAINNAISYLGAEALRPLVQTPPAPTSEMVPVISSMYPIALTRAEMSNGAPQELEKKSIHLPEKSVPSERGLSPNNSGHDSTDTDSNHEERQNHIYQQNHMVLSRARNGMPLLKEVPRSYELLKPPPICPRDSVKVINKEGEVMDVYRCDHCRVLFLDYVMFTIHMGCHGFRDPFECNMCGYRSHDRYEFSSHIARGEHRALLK
T3 sequence (Q96SW2 whole entry): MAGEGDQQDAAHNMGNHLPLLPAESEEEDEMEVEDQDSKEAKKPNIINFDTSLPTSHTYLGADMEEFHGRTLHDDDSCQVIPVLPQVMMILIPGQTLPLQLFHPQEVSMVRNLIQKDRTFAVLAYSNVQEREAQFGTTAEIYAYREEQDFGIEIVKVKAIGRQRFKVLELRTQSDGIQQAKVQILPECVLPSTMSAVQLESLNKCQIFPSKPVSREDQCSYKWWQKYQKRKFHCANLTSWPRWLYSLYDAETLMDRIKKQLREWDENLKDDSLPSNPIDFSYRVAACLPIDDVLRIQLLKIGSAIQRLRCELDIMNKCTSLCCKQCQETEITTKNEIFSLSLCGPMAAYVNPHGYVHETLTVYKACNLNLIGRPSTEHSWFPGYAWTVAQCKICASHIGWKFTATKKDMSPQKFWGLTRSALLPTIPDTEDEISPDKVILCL
T3 sequence (Q16531 whole entry partner): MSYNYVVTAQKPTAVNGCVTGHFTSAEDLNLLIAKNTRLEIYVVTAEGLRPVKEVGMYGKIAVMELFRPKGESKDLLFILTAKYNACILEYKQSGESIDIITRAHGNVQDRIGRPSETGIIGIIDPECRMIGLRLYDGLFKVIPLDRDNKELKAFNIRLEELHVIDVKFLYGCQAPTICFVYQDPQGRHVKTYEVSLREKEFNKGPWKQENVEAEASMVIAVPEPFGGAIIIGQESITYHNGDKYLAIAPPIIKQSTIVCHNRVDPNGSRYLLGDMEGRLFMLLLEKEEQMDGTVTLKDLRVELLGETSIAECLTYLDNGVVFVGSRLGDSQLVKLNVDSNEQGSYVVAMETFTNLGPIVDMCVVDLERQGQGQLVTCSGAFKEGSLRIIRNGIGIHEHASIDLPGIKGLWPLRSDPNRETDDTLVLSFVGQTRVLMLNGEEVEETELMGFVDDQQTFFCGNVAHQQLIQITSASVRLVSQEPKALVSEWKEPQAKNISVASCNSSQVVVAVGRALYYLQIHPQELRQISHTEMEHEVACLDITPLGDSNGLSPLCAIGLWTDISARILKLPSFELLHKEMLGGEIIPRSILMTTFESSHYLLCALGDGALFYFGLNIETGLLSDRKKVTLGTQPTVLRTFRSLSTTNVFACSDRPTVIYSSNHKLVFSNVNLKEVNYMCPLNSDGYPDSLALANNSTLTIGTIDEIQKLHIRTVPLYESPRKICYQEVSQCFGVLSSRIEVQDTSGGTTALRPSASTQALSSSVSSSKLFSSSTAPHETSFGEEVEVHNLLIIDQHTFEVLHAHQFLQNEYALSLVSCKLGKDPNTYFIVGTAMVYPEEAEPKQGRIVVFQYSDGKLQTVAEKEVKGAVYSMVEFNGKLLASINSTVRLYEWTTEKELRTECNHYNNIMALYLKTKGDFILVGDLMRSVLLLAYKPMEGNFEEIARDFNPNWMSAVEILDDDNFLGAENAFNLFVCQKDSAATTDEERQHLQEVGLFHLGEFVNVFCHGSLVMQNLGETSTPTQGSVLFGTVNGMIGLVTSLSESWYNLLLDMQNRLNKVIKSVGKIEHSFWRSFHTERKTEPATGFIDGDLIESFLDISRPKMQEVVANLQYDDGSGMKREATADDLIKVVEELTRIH

IKZF1 = target: T4, IKZF1 (Homo sapiens, UniProt Q13422+Q96SW2); test: Western-blot assay of substrate protein degradation in hPBMCs, IKZF1
T4 construct: endogenous in cells; host or cells: hPBMCs (Milecell Biotechnologies)
T4 sequence (Q13422 whole entry): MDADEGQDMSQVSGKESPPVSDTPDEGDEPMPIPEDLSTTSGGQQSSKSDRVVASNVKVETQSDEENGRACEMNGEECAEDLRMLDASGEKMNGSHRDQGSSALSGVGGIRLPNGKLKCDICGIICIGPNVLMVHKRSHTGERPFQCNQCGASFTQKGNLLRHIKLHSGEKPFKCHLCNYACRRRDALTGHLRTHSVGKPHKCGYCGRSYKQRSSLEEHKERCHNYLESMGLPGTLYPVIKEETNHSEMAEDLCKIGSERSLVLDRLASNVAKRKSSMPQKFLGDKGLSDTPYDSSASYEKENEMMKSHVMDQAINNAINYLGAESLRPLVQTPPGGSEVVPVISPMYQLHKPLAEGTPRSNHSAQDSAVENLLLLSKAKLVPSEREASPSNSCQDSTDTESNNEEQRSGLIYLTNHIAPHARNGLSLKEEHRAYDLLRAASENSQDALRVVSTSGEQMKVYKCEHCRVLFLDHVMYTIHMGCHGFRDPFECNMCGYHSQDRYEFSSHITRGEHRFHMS
T4 sequence (Q96SW2 whole entry): as the sequence (Q96SW2 whole entry) above
T4 sequence (Q16531 whole entry partner): as the sequence (Q16531 whole entry partner) above

WEE1 = target: T5, WEE1 (Homo sapiens, UniProt P30291+Q96SW2); test: Western-blot assay of substrate protein degradation in hPBMCs, WEE1
T5 construct: endogenous in cells; host or cells: hPBMCs (Milecell Biotechnologies)
T5 sequence (P30291 whole entry): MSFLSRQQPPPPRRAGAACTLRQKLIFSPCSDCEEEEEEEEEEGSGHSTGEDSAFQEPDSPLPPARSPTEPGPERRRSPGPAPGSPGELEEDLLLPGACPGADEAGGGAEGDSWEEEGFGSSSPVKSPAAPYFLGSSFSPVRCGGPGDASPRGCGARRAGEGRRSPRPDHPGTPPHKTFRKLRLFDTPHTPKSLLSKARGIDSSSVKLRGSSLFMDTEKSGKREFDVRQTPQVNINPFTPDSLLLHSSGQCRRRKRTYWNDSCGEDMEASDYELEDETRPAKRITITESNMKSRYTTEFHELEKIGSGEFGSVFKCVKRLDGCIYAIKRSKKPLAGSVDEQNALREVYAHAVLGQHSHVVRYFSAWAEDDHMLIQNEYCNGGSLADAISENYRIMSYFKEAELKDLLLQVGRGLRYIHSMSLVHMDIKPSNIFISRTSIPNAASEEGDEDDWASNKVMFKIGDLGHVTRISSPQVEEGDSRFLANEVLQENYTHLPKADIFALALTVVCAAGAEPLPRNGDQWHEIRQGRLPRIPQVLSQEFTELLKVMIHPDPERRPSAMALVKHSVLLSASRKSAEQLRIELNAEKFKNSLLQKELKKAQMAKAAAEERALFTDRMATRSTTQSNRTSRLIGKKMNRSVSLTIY
T5 sequence (Q96SW2 whole entry): as the sequence (Q96SW2 whole entry) above
T5 sequence (Q16531 whole entry partner): as the sequence (Q16531 whole entry partner) above

CK1α = target: T6, CK1α (Homo sapiens, UniProt P48729+Q96SW2); test: Western-blot assay of substrate protein degradation in hPBMCs, CK1α
T6 construct: endogenous in cells; host or cells: hPBMCs (Milecell Biotechnologies)
T6 sequence (P48729 whole entry): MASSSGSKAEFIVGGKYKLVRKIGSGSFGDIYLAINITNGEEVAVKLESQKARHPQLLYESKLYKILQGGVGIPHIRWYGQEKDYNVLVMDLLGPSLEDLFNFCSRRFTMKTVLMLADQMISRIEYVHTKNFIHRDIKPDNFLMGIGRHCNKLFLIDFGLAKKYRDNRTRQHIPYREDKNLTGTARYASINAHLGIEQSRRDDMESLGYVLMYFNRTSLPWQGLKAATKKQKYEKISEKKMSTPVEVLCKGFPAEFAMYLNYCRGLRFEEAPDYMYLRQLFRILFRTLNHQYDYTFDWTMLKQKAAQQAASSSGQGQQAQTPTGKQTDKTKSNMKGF
T6 sequence (Q96SW2 whole entry): as the sequence (Q96SW2 whole entry) above
T6 sequence (Q16531 whole entry partner): as the sequence (Q16531 whole entry partner) above

T1 sequence (P15170 whole entry): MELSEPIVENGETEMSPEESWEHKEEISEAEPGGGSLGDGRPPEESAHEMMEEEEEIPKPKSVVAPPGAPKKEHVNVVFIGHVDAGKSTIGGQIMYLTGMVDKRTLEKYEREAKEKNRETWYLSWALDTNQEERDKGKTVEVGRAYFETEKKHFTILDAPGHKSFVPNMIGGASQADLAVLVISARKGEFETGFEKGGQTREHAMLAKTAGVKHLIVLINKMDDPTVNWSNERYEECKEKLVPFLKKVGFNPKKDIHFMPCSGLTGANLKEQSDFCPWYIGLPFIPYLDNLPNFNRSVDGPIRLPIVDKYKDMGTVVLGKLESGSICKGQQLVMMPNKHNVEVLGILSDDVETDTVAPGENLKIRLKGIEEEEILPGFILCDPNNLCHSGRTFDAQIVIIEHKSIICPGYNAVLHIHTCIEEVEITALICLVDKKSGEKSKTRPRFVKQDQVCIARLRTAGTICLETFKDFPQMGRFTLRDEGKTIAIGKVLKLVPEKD
T1 sequence (Q96SW2 whole entry): as the sequence (Q96SW2 whole entry) above
T1 sequence (Q16531 whole entry partner): as the sequence (Q16531 whole entry partner) above

Row | SMILES | GSPT1 substrate protein remaining % (GSPT1) | IKZF2 substrate protein remaining % (IKZF2) | IKZF3 substrate protein remaining % (IKZF3) | IKZF 1 substrate protein remaining % (IKZF1) | Weel substrate protein remaining % (WEE1) | CK1a substrate protein remaining % (CK1α)
1 | O=C1CCC(N2C(=O)c3ccc(CN4CCC(c5ccsc5)CC4)cc3C2=O)C(=O)N1 (stereo not drawn) [GT-06281, 2-(2,6-dioxopiperidin-3-yl)-5-((4-(thiophen-3-yl)piperidin-1-yl)methyl)isoindoline-1,3-dione] | A (0% ≤ substrate protein remaining % ≤ 80%) | B (80%< substrate protein remaining %≤ 100%) | B (80%< substrate protein remaining %≤ 100%) | B (80%< substrate protein remaining %≤ 100%) | B (80%< substrate protein remaining %≤ 100%) | B (80%< substrate protein remaining %≤ 100%)
2 | Cc1cscc1C1CCN(Cc2ccc3c(c2)C(=O)N(C2CCC(=O)NC2=O)C3=O)CC1 (stereo not drawn) [GT-06282, 2-(2,6-dioxopiperidin-3-yl)-5-((4-(4-methylthiophen-3-yl)piperidin-1-yl)methyl)isoindoline-1,3-dione] | A (0% ≤ substrate protein remaining % ≤ 80%) | B (80%< substrate protein remaining %≤ 100%) | B (80%< substrate protein remaining %≤ 100%) | B (80%< substrate protein remaining %≤ 100%) | B (80%< substrate protein remaining %≤ 100%) | B (80%< substrate protein remaining %≤ 100%)
3 | Cc1cc(C2CCN(Cc3ccc4c(c3)C(=O)N(C3CCC(=O)NC3=O)C4=O)CC2)cs1 (stereo not drawn) [GT-06283, 2-(2,6-dioxopiperidin-3-yl)-5-((4-(5-methylthiophen-3-yl)piperidin-1-yl)methyl)isoindoline-1,3-dione] | A (0% ≤ substrate protein remaining % ≤ 80%) | B (80%< substrate protein remaining %≤ 100%) | B (80%< substrate protein remaining %≤ 100%) | B (80%< substrate protein remaining %≤ 100%) | B (80%< substrate protein remaining %≤ 100%) | B (80%< substrate protein remaining %≤ 100%)
4 | O=C1CCC(N2C(=O)c3ccc(CN4CCC(c5ccco5)CC4)cc3C2=O)C(=O)N1 (stereo not drawn) [GT-06284, 2-(2,6-dioxopiperidin-3-yl)-5-((4-(furan-2-yl)piperidin-1-yl)methyl)isoindoline-1,3-dione] | A (0% ≤ substrate protein remaining % ≤ 80%) | B (80%< substrate protein remaining %≤ 100%) | B (80%< substrate protein remaining %≤ 100%) | B (80%< substrate protein remaining %≤ 100%) | B (80%< substrate protein remaining %≤ 100%) | B (80%< substrate protein remaining %≤ 100%)
5 | O=C1CCC(N2C(=O)c3ccc(CN4CCC(c5ccoc5)CC4)cc3C2=O)C(=O)N1 (stereo not drawn) [GT-06285, 2-(2,6-dioxopiperidin-3-yl)-5-((4-(furan-3-yl)piperidin-1-yl)methyl)isoindoline-1,3-dione] | A (0% ≤ substrate protein remaining % ≤ 80%) | B (80%< substrate protein remaining %≤ 100%) | B (80%< substrate protein remaining %≤ 100%) | B (80%< substrate protein remaining %≤ 100%) | B (80%< substrate protein remaining %≤ 100%) | B (80%< substrate protein remaining %≤ 100%)
6 | O=C1CCC(N2C(=O)c3ccc(CN4CCN(c5ccccc5)CC4)cc3C2=O)C(=O)N1 (stereo not drawn) [GT-06286, 2-(2,6-dioxopiperidin-3-yl)-5-((4-phenylpiperazin-1-yl)methyl)isoindoline-1,3-dione] | A (0% ≤ substrate protein remaining % ≤ 80%) | B (80%< substrate protein remaining %≤ 100%) | B (80%< substrate protein remaining %≤ 100%) | B (80%< substrate protein remaining %≤ 100%) | B (80%< substrate protein remaining %≤ 100%) | B (80%< substrate protein remaining %≤ 100%)
7 | COc1ccccc1N1CCN(Cc2ccc3c(c2)C(=O)N(C2CCC(=O)NC2=O)C3=O)CC1 (stereo not drawn) [GT-06287, 2-(2,6-dioxopiperidin-3-yl)-5-((4-(2-methoxyphenyl)piperazin-1-yl)methyl)isoindoline-1,3-dione] | A (0% ≤ substrate protein remaining % ≤ 80%) | B (80%< substrate protein remaining %≤ 100%) | B (80%< substrate protein remaining %≤ 100%) | B (80%< substrate protein remaining %≤ 100%) | B (80%< substrate protein remaining %≤ 100%) | B (80%< substrate protein remaining %≤ 100%)
8 | COc1cccc(N2CCN(Cc3ccc4c(c3)C(=O)N(C3CCC(=O)NC3=O)C4=O)CC2)c1 (stereo not drawn) [GT-06288, 2-(2,6-dioxopiperidin-3-yl)-5-((4-(3-methoxyphenyl)piperazin-1-yl)methyl)isoindoline-1,3-dione] | A (0% ≤ substrate protein remaining % ≤ 80%) | B (80%< substrate protein remaining %≤ 100%) | B (80%< substrate protein remaining %≤ 100%) | B (80%< substrate protein remaining %≤ 100%) | B (80%< substrate protein remaining %≤ 100%) | B (80%< substrate protein remaining %≤ 100%)
9 | O=C1CCC(N2C(=O)c3ccc(CN4CCN(c5cccc(Br)c5)CC4)cc3C2=O)C(=O)N1 (stereo not drawn) [GT-06289, 5-((4-(3-bromophenyl)piperazin-1-yl)methyl)-2-(2,6-dioxopiperidin-3-yl)isoindoline-1,3-dione] | A (0% ≤ substrate protein remaining % ≤ 80%) | B (80%< substrate protein remaining %≤ 100%) | B (80%< substrate protein remaining %≤ 100%) | B (80%< substrate protein remaining %≤ 100%) | B (80%< substrate protein remaining %≤ 100%) | B (80%< substrate protein remaining %≤ 100%)
10 | O=C1CCC(N2C(=O)c3ccc(CN4CCN(c5ccc(C(F)(F)F)cc5)CC4)cc3C2=O)C(=O)N1 (stereo not drawn) [GT-06290, 2-(2,6-dioxopiperidin-3-yl)-5-((4-(4-(trifluoromethyl)phenyl)piperazin-1-yl)methyl)isoindoline-1,3-dione] | A (0% ≤ substrate protein remaining % ≤ 80%) | B (80%< substrate protein remaining %≤ 100%) | B (80%< substrate protein remaining %≤ 100%) | B (80%< substrate protein remaining %≤ 100%) | B (80%< substrate protein remaining %≤ 100%) | B (80%< substrate protein remaining %≤ 100%)
